Data as given in US20070243576A1, “Method to confirm immunosuppression in human patients by measuring lymphocyte activation” (priority 2001, published 2007).

Assays:
[1] = test system: T-Lymphocytes (CD4 subset) in whole blood; assay type: cell-based, human
[2] = test system: T lymphocytes (CD4 subset) in whole blood; experiment: Whole blood ATP response after stimulation with PHA, 2-24 hr (Example 2); assay type: cell-based, human; conditions: PHA 1%
Procedure: Aliquots of the blood were diluted 1:10 in RPMI 1640. Replicates received either no addition or the mitogen PHA at 1% final concentration. Samples were incubated at 37° C. […] The cells and beads were placed next to a permanent magnet positioned such that the magnetic field was in a direction perpendicular to gravity. […] Assay Reagent (luciferin/luciferase) was added to the samples ATP production was determined as described above. […] The response is clearly evident at 4 hours of incubation, peaks at 8 hours, and remains high at 24 hrs post stimulation.

[3] = test system: T-Lymphocytes (CD4 subset) in whole blood; experiment: T-lymphocyte ATP response to PHA in normal and HIV infected donors (Example 4); conditions: PHA 10 ug/mL, overnight incubation, anti-CD4 beads
[4] = test system: T-lymphocytes in whole blood; assay type: cell-based, human

| Substance | increase in ATP over background [1] | time within which activation of the T lymphocyte subset is detected [1] [min] | increase in ATP over background ([2]; all time points (2, 4, 6, 8, 24 hr)) | time of peak ATP response ([2]; time course 2-24 hr) [h] | ATP response to PHA, HIV+ population versus normal donors [3] | increase in ATP over background [4] |
| --- | --- | --- | --- | --- | --- | --- |
| Phytohemagglutinin [PHA] | statistically significant increase | ≤ 30 | increase in ATP over background | 8 | lower than the normal donor population | – |
| Tetanus Toxoid | significant | ≤ 300 | – | – | – | increase in ATP over background |
